Measurements: US20100029604A1, “ANTIBACTERIAL COMBINATION AND ITS USE” (priority 2007, published 2010)
Values after ≈ are worked out from the molar mass of the structure shown.

Experiments:
Assay type in all cases: cell-based
E. coli TEM-1 = settings: TEM-1, class A, inhibitor constant 4 μg/mL
E. coli TEM-2 = settings: TEM-2, class A, inhibitor constant 4 μg/mL
K. pneumoniae SHV-18 = assay: Synergy MIC, inhibitor at 4 μg/mL (Example 4); settings: SHV-18, class A, inhibitor constant 4 μg/mL
E. coli SHV-3 = assay: Synergy MIC, inhibitor at 4 μg/mL (Example 4); settings: SHV-3, class A, inhibitor constant 4 μg/mL
Escherichia coli SHV-2 = assay: MIC, characterised β-lactamase producing strain (Example 5, Tables 5-7); settings: Table 6; Escherichia coli SHV-2; LK-157 at constant 4 μg/mL in combination
Procedure: (§1) The MIC experiments were performed in duplicate in 96-well microtiter plates using CAMHB. […] The bacterial suspension with final inoculum 10^5 CFU/mL was transferred to the test medium containing the antibacterial substances. In each well of a 96-well microtiter plate was combined 50 μL of bacterial inoculum, 50 μL of antibiotic dilutions (or media for determination of the MIC of the antibiotic in the absence of test compound). Each plate included 4 wells with no bacterial inoculum (negative control) and 4 wells with no test compound and no antibiotic (positive control). The plates were incubated at 35° C. for 24 h. Purity check and colony counts on each inoculum suspension was performed to ensure that the final inoculum concentration routinely obtained closely approximates 5×10^5 CFU/mL. In addition the assay is routinely monitored by testing standard antibiotics and ensuring that MIC values are within the recommended ranges for the respective strains.
(§2) This test permits comparisons to be made between bacterial growth in the presence of antibiotic alone and bacterial growth in the presence of both an antibiotic and a novel (test) compound.

Escherichia coli TEM-20 = assay: as above; settings: Table 6; Escherichia coli TEM-20; LK-157 at constant 4 μg/mL in combination
Procedure: as §1, §2

Escherichia coli TEM-50 = assay: as above; settings: Table 6; Escherichia coli TEM-50; LK-157 at constant 4 μg/mL in combination
Procedure: as §1, §2

Escherichia coli TEM-5 = assay: as above; settings: Table 6; Escherichia coli TEM-5; LK-157 at constant 4 μg/mL in combination
Procedure: as §1, §2

Escherichia coli TEM-6 = assay: as above; settings: Table 6; Escherichia coli TEM-6; LK-157 at constant 4 μg/mL in combination
Procedure: as §1, §2

Escherichia coli TEM-7 = assay: as above; settings: Table 6; Escherichia coli TEM-7; LK-157 at constant 4 μg/mL in combination
Procedure: as §1, §2

[1] = test system: Klebsiella pneumoniae LAT-1; assay: as above; settings: Table 6; Klebsiella pneumoniae LAT-1; LK-157 at constant 4 μg/mL in combination
Procedure: as §1, §2

[2] = test system: Klebsiella pneumoniae TEM-1, SHV; assay: as above; settings: Table 6, LK-157 at constant 4 μg/mL in combination
Procedure: as §1, §2

[3] = test system: Klebsiella pneumoniae TEM-31; assay: as above; settings: Table 6; Klebsiella pneumoniae TEM-31; LK-157 at constant 4 μg/mL in combination
Procedure: as §1, §2

Proteus mirabilis TEM-52 = assay: as above; settings: Table 6; Proteus mirabilis TEM-52; LK-157 at constant 4 μg/mL in combination
Procedure: as §1, §2

[4] = test system: Pseudomonas aeruginosa LCR-1; assay: as above; settings: Table 6; Pseudomonas aeruginosa LCR-1; LK-157 at constant 4 μg/mL in combination
Procedure: as §1, §2

[5] = test system: Pseudomonas aeruginosa OXA-10; assay: as above; settings: Table 6; Pseudomonas aeruginosa OXA-10; LK-157 at constant 4 μg/mL in combination
Procedure: as §1, §2

[6] = test system: Pseudomonas aeruginosa PSE-1; assay: as above; settings: Table 6; Pseudomonas aeruginosa PSE-1; LK-157 at constant 4 μg/mL in combination
Procedure: as §1, §2

Escherichia coli HMS-1 = assay: as above; settings: Table 6; Escherichia coli HMS-1; LK-157 at constant 4 μg/mL in combination
Procedure: (§3) The MIC experiments were performed in duplicate in 96-well microtiter plates using CAMHB. Serial twofold dilutions of each antibiotic either alone or in combination with constant concentration ratio of a β-lactamase inhibitor (2:1) were prepared in CAMHB. The bacterial suspension with final inoculum 10^5 CFU/mL was transferred to the test medium containing the antibacterial substances. In each well of a 96-well microtiter plate was combined 50 μL of bacterial inoculum, 50 μL of antibiotic dilutions (or media for determination of the MIC of the antibiotic in the absence of test compound). Each plate included 4 wells with no bacterial inoculum (negative control) and 4 wells with no test compound and no antibiotic (positive control). The plates were incubated at 35° C. for 24 h. Purity check and colony counts on each inoculum suspension was performed to ensure that the final inoculum concentration routinely obtained closely approximates 5×10^5 CFU/mL. In addition the assay is routinely monitored by testing standard antibiotics and ensuring that MIC values are within the recommended ranges for the respective strains.
as §2

Escherichia coli OXA-2 = assay: as above; settings: Table 6; Escherichia coli OXA-2; LK-157 at constant 4 μg/mL in combination
Procedure: as §3, §2

Escherichia coli OXA-5 = assay: as above; settings: Table 6; Escherichia coli OXA-5; LK-157 at constant 4 μg/mL in combination
Procedure: as §3, §2

Escherichia coli TEM-2 = assay: as above; settings: Table 6; Escherichia coli TEM-2; LK-157 at constant 4 μg/mL in combination
Procedure: as §3, §2

Escherichia coli TEM-31 = assay: as above; settings: Table 6; Escherichia coli TEM-31; LK-157 at constant 4 μg/mL in combination
Procedure: as §3, §2

Escherichia coli TEM-3 = assay: as above; settings: Table 6; Escherichia coli TEM-3; LK-157 at constant 4 μg/mL in combination
Procedure: as §3, §2

[7] = test system: Pseudomonas aeruginosa CARB-3; assay: as above; settings: Table 6; Pseudomonas aeruginosa CARB-3; LK-157 at constant 4 μg/mL in combination
Procedure: as §3, §2

Escherichia coli TEM-1 = settings: Table 6; Escherichia coli TEM-1; LK-157 at constant 4 μg/mL in combination
Procedure: as §3, §2

CO/N=C(\C(=O)N[C@@H]1C(=O)N2C(C(=O)O)=C(COC(C)=O)CS[C@H]12)c1csc(N)n1 [cefotaxime]
MIC (E. coli TEM-1): > 25.6 µg/mL | MIC (E. coli TEM-2): 0.1 µg/mL (≈ 0.22 µM) | MIC (K. pneumoniae SHV-18): 3.2 µg/mL | MIC (E. coli SHV-3): 3.2 µg/mL | MIC (Escherichia coli SHV-2): 4 µg/mL | MIC (Escherichia coli TEM-20): 2 µg/mL | MIC (Escherichia coli TEM-50): 8 µg/mL | MIC (Escherichia coli TEM-5): 0.063 µg/mL | MIC (Escherichia coli TEM-6): 0.5 µg/mL | MIC (Escherichia coli TEM-7): 0.25 µg/mL | MIC [1]: 4 µg/mL | MIC [2]: 4 µg/mL | MIC [3]: 0.063 µg/mL | MIC (Proteus mirabilis TEM-52): 16 µg/mL | MIC [4]: 64 µg/mL | MIC [5]: 64 µg/mL | MIC [6]: 16 µg/mL | MIC (Escherichia coli HMS-1): 0.063 µg/mL | MIC (Escherichia coli OXA-2): 0.063 µg/mL | MIC (Escherichia coli OXA-5): 0.25 µg/mL | MIC (Escherichia coli TEM-2): 0.063 µg/mL | MIC (Escherichia coli TEM-31): 0.063 µg/mL | MIC (Escherichia coli TEM-3): 16 µg/mL | MIC [7]: 16 µg/mL | MIC (Escherichia coli TEM-1): 0.063 µg/mL
